Measured values from publication PMC3985611 (Chemistry & biology, 2013).

Molecular target: Hsp70 (Homo sapiens, UniProt P0DMV8)
Test: competition of YK5-biotin pull-down in cancer cells
Format: cell-based

Hsp70, sequence (P0DMV8 2-641): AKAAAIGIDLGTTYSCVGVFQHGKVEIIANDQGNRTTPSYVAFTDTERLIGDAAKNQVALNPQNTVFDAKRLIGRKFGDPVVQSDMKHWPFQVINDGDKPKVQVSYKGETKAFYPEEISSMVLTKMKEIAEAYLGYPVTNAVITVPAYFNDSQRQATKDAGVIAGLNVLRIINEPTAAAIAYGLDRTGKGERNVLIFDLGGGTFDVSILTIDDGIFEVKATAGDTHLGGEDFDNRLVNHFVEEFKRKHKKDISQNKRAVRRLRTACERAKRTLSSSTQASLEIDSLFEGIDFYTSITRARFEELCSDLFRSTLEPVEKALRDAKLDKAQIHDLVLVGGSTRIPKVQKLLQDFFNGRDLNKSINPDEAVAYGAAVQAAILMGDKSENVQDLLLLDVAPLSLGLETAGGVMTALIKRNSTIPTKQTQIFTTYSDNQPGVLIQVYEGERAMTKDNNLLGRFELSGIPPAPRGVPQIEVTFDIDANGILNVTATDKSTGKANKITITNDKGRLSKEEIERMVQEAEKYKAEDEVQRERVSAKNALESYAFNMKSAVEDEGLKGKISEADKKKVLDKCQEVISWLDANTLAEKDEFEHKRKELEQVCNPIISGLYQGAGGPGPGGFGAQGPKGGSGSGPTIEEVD

- IC50: ~7 µM
Compound: C=CC(=O)Nc1cc(N)nc(Sc2c(OC)nc(N3CCN(C)CC3)nc2OC)n1 [YK5]
